In series [1] the test system is RSV-infected BALB/c mice. Nature of the series: Alveolar fluid clearance (AFC) in RSV-infected mice at day 2 p.i. The conditions noted are these: for effect on RSV-mediated inhibition of AFC at day 2 p.i. (in words): added to the AFC instillate. It is filed as in vivo. The protocol:
Preparation of viral inocula and infection of mice. […] J. Physiol. Lung Cell Mol. Physiol. […] Data for each experimental group was derived from a minimum of 2 independent infections.
Systemic inhibition of de novo pyrimidine and purine synthesis. Leflunomide (5-methylisoxazole-4-[4-trifluoromethyl]carboxanilide, 35 mg/kg in distilled water containing 1% methylcellulose) was administered once daily by oral gavage in a volume of 300 μl/mouse for 8 days prior to infection, then throughout the infection period. Vehicle controls were gavaged with an equivalent volume of 1% methylcellulose in distilled water.
To systemically block de novo pyrimidine synthesis, mice were gavaged once daily for 8 days with […] of the dihydro-orotate reductase (DHOR) inhibitor leflunomide ([…] suspended in 1% methylcellulose) or vehicle prior to infection, then at 0 and 24 hours p.i. AFC studies were performed at 48 hours p.i., with no additions to the AFC instillate.
(§1) AFC studies were performed on anesthetized, ventilated BALB/c mice with normal body temperature and blood gases, over a 30 minute period after intratracheal instillation of 0.3 ml of isosmolar NaCl containing 5% fatty acid-free BSA. The number of mice analyzed per group is listed in the relevant bar of each graph.

Series [2] relates to uninfected BALB/c mice. In words: Alveolar fluid clearance (AFC) in uninfected or mock-infected mice. It is filed as in vivo. The conditions noted are these: uninfected mice. The protocol:
Systemic inhibition of de novo pyrimidine and purine synthesis. […] Vehicle controls were gavaged with an equivalent volume of 1% methylcellulose in distilled water. Uridine (1 g/kg in 0.9% NaCl) was administered by i.p. injection every 12 hours in a volume of 100 μl (8). […]
as §1

The test system of series [3] is RSV-infected BALB/c mice. In words: Lung water content (wet:dry weight ratio) after RSV infection. Type of series: in vivo. The protocol:
(§2) Preparation of viral inocula and infection of mice. Preparation of viral stocks and intranasal infection of eight to twelve week-old pathogen-free BALB/c mice of either sex with RSV strain A2 (10^6 PFU in 100 μl) were performed as described in Davis et al., “Nucleotide-mediated inhibition of alveolar fluid clearance in BALB/c mice after respiratory syncytial virus infection,” Am. J. Physiol. Lung Cell Mol. Physiol. 286:L112-L120. (2004). Data for each experimental group was derived from a minimum of 2 independent infections.
(§3) Systemic inhibition of de novo pyrimidine and purine synthesis. Leflunomide (5-methylisoxazole-4-[4-trifluoromethyl]carboxanilide, 35 mg/kg in distilled water containing 1% methylcellulose) was administered once daily by oral gavage in a volume of 300 μl/mouse for 8 days prior to infection, then throughout the infection period. Vehicle controls were gavaged with an equivalent volume of 1% methylcellulose in distilled water. […]

For series [4], the system named is IFN-α, IL-1β, KC, TNF-α in BALF. In words: Measurement of proinflammatory cytokines in BALF (ELISA). Type of series: in vivo, BALB/c mice. The conditions noted are these: RSV-infected mice, d2. The protocol: as §2
Bronchoalveolar lavage. Bronchoalveolar lavage fluid (BALF) was collected as previously described in Davis et al., (2004), using 1 ml of sterile normal saline for cytokine ELISAs, or 0.3 ml of sterile saline for nucleotide assays. Lavagates were centrifuged to remove cells and supernatants stored at −80° C.
Systemic inhibition of de novo pyrimidine and purine synthesis. Leflunomide (5-methylisoxazole-4-[4-trifluoromethyl]carboxanilide, 35 mg/kg in distilled water containing 1% methylcellulose) was administered once daily by oral gavage in a volume of 300 μl/mouse for 8 days prior to infection, then throughout the infection period. Vehicle controls were gavaged with an equivalent volume of 1% methylcellulose in distilled water. […].
Measurement of proinflammatory cytokines in BALF. Cytokine levels were determined using Quantikine M ELISA kits (R & D Systems), in accordance with manufacturer's instructions.
Background: In an ELISA, binding on a coated surface is turned into a signal by an enzyme label.

The format of series [5] is in vivo. The protocol:
as §2, §3

Series [6] deals with RSV strain A2. Nature of the series: RSV replication in mouse lungs. Type of series: in vivo, Respiratory syncytial virus. The conditions noted are these: RSV-infected mice, day 2 p.i.; systemic treatment. The protocol: as §2, §3
Setting [7] is: RSV-infected mice, day 2 p.i., final concentration 25 μM (Table 6).

“Also recorded” adds a separate entry of the source. Marks after values point to notes of the source that are not given here.

As to `O=C(O)c1cccnc1Nc1cccc(C(F)(F)F)c1` [Niflumic acid], in series [1] (RSV-infected mice, d2, inhibitor 100 μM in AFC instillate (Table 5)), the “AFC (mean % AFC ± SE)” value was found to be 20.28 ± 1.53%. The “effect on RSV-mediated inhibition of AFC at day 2 p.i. (in words)” value in series [1] was “unaffected”.
In the case of `N=C(N)NC(=O)c1nc(Cl)c(N)nc1N` [AMIL, amiloride], the “AFC (mean % AFC ± SE) with amiloride in instillate” value in series [1] (RSV-infected mice, d2, 1.5 mM amiloride added to the instillate) was found to be 22.82 ± 1.92%; in series [2] (1.5 mM amiloride added to the instillate), 14.65 ± 1.59 %.
Turning to `C/C(O)=C(\C#N)C(=O)Nc1ccc(C(F)(F)F)cc1` [A77-1726], the “effect on RSV-induced inhibition of AFC, intranasal treatment (in words)” value in series [1] (50 μM in 100 μl normal saline intranasally at 24 hours p.i.) is “completely blocked”. The “AFC30BASAL (mean % basal AFC after 30 minutes ± SE)” value in series [1] (RSV day 2 p.i., 50 μM in 100 μl normal saline intranasally 24 hours after infection) turned out to be 32.68 ± 1.1 %; in series [1] (setting [7]), 34.06 ± 1.88 %; in series [2] (50 μM in 100 μl normal saline intranasally 24 hours prior to AFC assay) it was 23.19 ± 5.95 %. The “effect on RSV-mediated inhibition of AFC at day 2 p.i. (in words)” value in series [1] is “prevented; also recorded: reverses RSV-mediated inhibition of AFC”. The “lung wet:dry weight ratios, intranasal treatment” value in series [3] (A77-1726 intranasal) is “normalization of lung wet:dry weight ratios”.
In the case of `Sc1ncnc2nc[nH]c12` [6-MP, 6-mercaptopurine], in series [1] (setting [7]), the “AFC30BASAL (mean % basal AFC after 30 minutes ± SE)” value is 26.31 ± 1.85 %. Also, the “effect on RSV-mediated inhibition of AFC at day 2 p.i. (in words)” value in series [1] is given as “only a minor effect”. Further, the “effect on RSV-mediated inhibition of AFC at day 2 p.i. (in words)” value in series [1] (listed as 6-mercaptopurine) is “not and only a small blocking effect”. For the same compound, the “effect on RSV-mediated inhibition of AFC at d2 (in words)” value in series [1] (systemic treatment (leflunomide oral gavage; uridine, 6-MP i.p.)) was “no effect on AFC”. Also, the “BALF proinflammatory cytokine levels (IFN-α, IL-1β, KC, TNF-α) (in words)” value in series [4] was “comparable decline”. In series [4] (systemic treatment), the “IFN-α, mean cytokine concentration in BALF ± SE” value came out at 105 ± 14 pg/mL; the “IL-1β, mean cytokine concentration in BALF ± SE” value was 9 ± 3 pg/mL; the “KC, mean cytokine concentration in BALF ± SE” value turned out to be 329 ± 63 pg/mL; the “TNF-α, mean cytokine concentration in BALF ± SE” value was 0*** pg/ml. Besides, the tolerance to anesthesia result in series [5] (6-MP 35 mg/kg i.p. every 24 hours) was “poor tolerance to anesthesia (resulting in sporadic deaths)”. In addition, in series [5] (D1 and d2 p.i., versus untreated RSV-infected mice), the “body weight loss after RSV infection” value is given as “significant increase in body weight loss”. Moreover, in series [5] (before RSV infection, leflunomide 8 days, 6-MP 5 days), the “body weight during the pretreatment (preinfection) period” value is given as “significant loss of body weight”. Also, the “lung water content (wet:dry weight ratio) (in words)” value in series [3] (day 2, systemic treatment) is on record as “did not alter lung wet:dry weight ratios”. For the same compound, the “virus replication in lung tissue at d2” value in series [6] is reported as “no significant inhibitory effect”.
Regarding `O=c1[nH]cnc2nc[nH]c12` [hypoxanthine], the “effect of hypoxanthine in the AFC instillate on the MPA effect on AFC” value in series [1] (RSV-infected mice, day 2 p.i., 50 mM hypoxanthine as printed) is on record as “fully reversed; also recorded: blocked”.
Turning to `CC/C(=C(\c1ccccc1)c1ccc(OCCN(C)C)cc1)c1ccccc1` [Tamoxifen], the “AFC (mean % AFC ± SE)” value in series [1] (RSV-infected mice, d2, inhibitor 25 μM in AFC instillate (Table 5)) came to 34.50 ± 0.94 %. In series [1] (setting [7]), the “AFC30BASAL (mean % basal AFC after 30 minutes ± SE)” value is 34.5 ± 0.95 %. Also, the “effect on RSV-mediated inhibition of AFC at day 2 p.i. (in words)” value in series [1] is on record as “blocked RSV-mediated inhibition of AFC”.
On to `CNCCC(Oc1ccc(C(F)(F)F)cc1)c1ccccc1` (centres unmarked) [Fluoxetine], for which the “AFC (mean % AFC ± SE)” value in series [1] (RSV-infected mice, d2, inhibitor 10 μM in AFC instillate (Table 5)) stood at 34.54 ± 0.79 %. For the same compound, in series [1] (RSV-infected mice, day 2 p.i., final concentration 10 μM (Table 6)), the “AFC30BASAL (mean % basal AFC after 30 minutes ± SE)” value was found to be 34.54 ± 0.79 %. Moreover, the “effect on RSV-mediated inhibition of AFC at day 2 p.i. (in words)” value in series [1] is given as “blocked RSV-mediated inhibition of AFC”.
In the case of apyrase, the “effect on RSV-mediated inhibition of AFC at day 2 p.i. (in words)” value in series [1] was “reversed”.

The values are drawn from US20070219224A1, “Compositions and Methods Relating to Pyrimidine Synthesis Inhibitors” (UAB RESEARCH FOUNDATION, THE, priority 2004, published 2007).
